What all share (format): physicochemical
A short description of data set [1]: Dynamic vapor sorption (DVS) analysis. Conditions: 25° C., 5 to 95% RH. The procedure: Different polymorphic forms of a compound may have different hygroscopic properties. […] A sample weight of less than 10 mg was loaded into a metal-coated quartz pan for analysis. The sample was analyzed at 25° C. after equilibrated to 5% relative humidity (RH) in 10% RH steps from 5 to 95% RH (adsorption cycle) and from 95 to 5% RH (desorption cycle). The movement from one step to the next occurred either after satisfying the equilibrium criterion of 0.01% weight change in 5 minutes or, if the equilibrium criterion was not met, after 90 minutes. The percent weight change values are calculated using Microsoft Excel®. The DVS analysis was carried out using a TA Instruments Q5000 Dynamic Vapor Sorption analyzer. […]

Data set [2] is described as follows: Slurry experiments using Compound 1 crystalline Form A hydrate in methanol and methanol:water, XRPD. Conditions: two days, 30 mg. The procedure:
The nature of this peak is unknown. […]
(§1) A Rigaku SmartLab X-Ray Diffractometer was configured in Bragg-Brentano reflection geometry equipped with a beam stop and knife edge to reduce incident beam and air scatter. No filter was used for crystalline Form C anhydrate crystalline Form E DMSO solvate. Spinning rate of 17 rpm was used for crystalline Form C anhydrate analysis. Other parameters are the same as described in Table 27.

A short description of data set [3]: Relative stability of Form A hydrate and Form C anhydrate in ethanol and ethanol/water slurries. The procedure: The relative stability of the crystalline Form A hydrate and Compound 1 crystalline Form C anhydrate was evaluated in ethanol and ethanol/water between ambient temperature and 50° C.
Crystalline Form C anhydrate was prepared by slurrying crystalline Form A hydrate in absolute ethanol at 40° C. for about two days (Sample 1, FIG. 25A). Attempts to prepare amorphous material by cold precipitation and lyophilization were carried out but were unsuccessful. […] The lyophilization experiment produced material having an XRPD pattern consistent with crystalline Form E DMSO solvate (FIG. 25C).
To prepare the crystalline Form C anhydrate, 249 mg of Compound 1 crystalline Form A hydrate was placed in an 8 mL glass vial followed by 2.0 mL of absolute ethanol. The resulting slurry was stirred magnetically at 40° C. for about two days. The slurry was vacuum filtered and the solids allowed to air dry for 15 minutes at room temperature.

Data set [4] is described as follows: Conversion rate of crystalline Form A hydrate to crystalline Form C anhydrate in ethanol at about 50° C., XRPD. To be noted: slurry in absolute ethanol at about 50° C., 1 hour. The procedure: The conversion rate of the crystalline Form A hydrate to the crystalline Form C anhydrate in ethanol at about 50° C. was investigated (Table 25). Slurries were prepared using Compound 1 crystalline Form A hydrate as starting material. […] Each slurry was stirred magnetically at about 50° C. and subsequently vacuum filtered to collect the solid at given times. The resulting solids were analyzed by XRPD immediately. […] A Rigaku SmartLab X-Ray Diffractometer was configured in Bragg-Brentano reflection geometry equipped with a beam stop and knife edge to reduce incident beam and air scatter. […] Spinning rate of 17 rpm was used for crystalline Form C anhydrate analysis. Other parameters are the same as described in Table 27.

Data set [5] in a line: Stability study of crystalline Forms A and C at 25° C./60% RH and 40° C./75% RH, analysed by XRPD. Conditions: after 4 weeks. The procedure:
A sample of each of crystalline Forms A and C was placed in an uncapped vial and exposed to 25° C./60% RH and 40° C./75% relative humidity (“RH”) for 4 weeks (Table 24). The resultant samples were analyzed by XRPD at T=1, 2, and 4 weeks to evaluate their physical stability.
as §1

[6] abbreviates: listed as Compound 1 crystalline Form A hydrate.

The structures appear in SMILES notation.

Take `CN1Oc2cc3c(c4cccc(c24)C1=O)[C@H](CCl)CN3C(=O)c1cc2cc(NC(=O)c3cc4ccccc4[nH]3)ccc2[nH]1` [Crystalline Form C anhydrate, (S)—N-(2-(10-(Chloromethyl)-5-methyl-4-oxo-5,8,9,10-tetrahydro-4H-pyrrolo[3′,2′: 5,6]naphtho[1,8-de][1,2]oxazine-8-carbonyl)-1H-indol-5-yl)-1H-indole-2-carboxamide]: the values for the DVS weight gain result in data set [1] (listed as Compound 1 Crystalline Form C anhydrate) and in data set [1] (listed as Compound 1 crystalline Form C anhydrate) were “Weight gain of 0.35% at 5-95% RH” and 0.35%, respectively.

As to `CN1Oc2cc3c(c4cccc(c24)C1=O)[C@H](CCl)CN3C(=O)c1cc2cc(NC(=O)c3cc4ccccc4[nH]3)ccc2[nH]1` [Crystalline Form A hydrate, (S)—N-(2-(10-(Chloromethyl)-5-methyl-4-oxo-5,8,9,10-tetrahydro-4H-pyrrolo[3′,2′: 5,6]naphtho[1,8-de][1,2]oxazine-8-carbonyl)-1H-indol-5-yl)-1H-indole-2-carboxamide], the “XRPD Result” value in data set [2] (95:5 MeOH:water) is reported as “remained that of the crystalline Form A hydrate”; in data set [2] (MeOH) it was “remained that of the crystalline Form A hydrate”; in data set [4] it was “converted to crystalline Form C anhydrate completely”. Moreover, the form conversion result is “converts to the crystalline Form C anhydrate” in data set [3] (absolute ethanol, about 40° C., about two days) and “converted to crystalline Form C anhydrate” in data set [3] (ethanol at about 50° C., slurrying for four days). Further, the “relative stability (form conversion)” value in data set [3] (ethanol and ethanol/water, between ambient temperature and 50° C.) was “converted to the crystalline Form C anhydrate except when the water activity of the solvent was greater than 0.31”. The “hygroscopicity (DVS)” value in data set [1] (listed as Compound 1 Crystalline Form A hydrate) is “Slightly hygroscopic”; in data set [1] (setting [6]) it was “slightly hygroscopic”. The DVS weight gain result in data set [1] (setting [6]) was “less than 0.5%”. The “crystalline Form conversion (physical stability)” value in data set [5] is recorded as “No crystalline Form conversion was observed”.

Source of the values: patent US20260250300A1, “POLYMORPHS AND THEIR USE FOR TREATING CANCER” (Cairn Therapeutics, Inc., priority 2023, published 2026).
